{
  "source": "patent US9169509B2",
  "about": "“Topoisomerase 2b as a predictor of susceptibility to anthracycline-induced cardiotoxicity” (Board of Regents, The University of Texas System, priority 2013, dated 2015)",
  "type_in_all_cases": "in vivo, mouse",
  "key": {"cardiomyocytes [1]": {"system": "cardiomyocytes", "assay": "RT-qPCR of cardiomyocytes isolated from doxorubicin-treated mice", "description": "Isolation of cardiomyocytes from mouse heart was carried out with Langendorff perfusion apparatus according to the standard protocol described above. Total RNA extraction was performed with TRIZOL Reagent (Invitrogen) and purification with RNeasy Mini Kit (QIAGEN) according the manufacturer's protocol. The concentration of RNA obtained was measured using a super-sensitive NanoDrop ND1000 spectrophotometer (Thermo Scientific). Reverse transcription reaction was performed by using the High Capacity RNA-to-cDNA Kit (Applied Biosystem). In brief, cDNA was generated from 1 μg of RNA by RT Enzyme Mix according to the manufacturer's instructions on a PCR thermocycler (S1000TM Thermal Cycler, BIO-RAD, USA). The resulting cDNA was diluted to a final concentration of 50 ng/μl for PCR amplification. Real time quantitative PCR was carried out by using a 7900HT Fast Real-Time PCR System (Applied Biosystems). Mouse TaqMan® Gene primers and probes (FAM, Applied Biosystem), were used in PCR amplification. Mouse GAPDH was used as internal control (VIC®/MGB Probe, Primer Limited, Applied Biosystem). The following TaqMan® Gene primers/probes were used Sdha (Mm01352366_m1), ATP5a1: (Mm00431960_m1), Ndufa3 (Mm01329704_g1), Ppargcla (PGC-1α, Mm01208835_m1), Ppargc1b (PGC-1β, Mm00504720_m1), Esrra (EER, Mm00433143_m1), Trp53inp1 (Mm00458141_m1), Fas: (Mm00433237_m1), Apaf1 (Mm01223702_m1), Bax (Mm00432051_m1), Mdm2 (Mm01233136_m1), and GAPDH: Mouse GAPD (GAPDH) Endogenous Control (VIC®/MGB Probe, Primer Limited). Comparative analyses of each gene were performed using company-provided softwares, SDS2.4 and RQ Manager 1.2.1 (Applied Biosystems). All amplifications were carried out at least in duplicates. The mRNA expression levels of each gene were calculated by using the 2-ΔΔCt (comparative threshold cycle) method, as detailed by the manufacturer (Applied Biosystems)."}, "heart sections [2]": {"system": "heart sections", "assay": "Detection of reactive oxygen species (DHE staining) in heart sections", "excerpt": "The hearts were isolated on ice, embedded in OCT, snap frozen in liquid nitrogen, sectioned into 5 μm-thick slices, and ROS generation was detected immediately by using dihydroethidium (DHE). Doxorubicin treatment generated ROS in the hearts of Top2b^+/+ mice, but this was reduced by 70% in Top2b^Δ/Δ mice (FIGS. 5b,c).\nThe hearts were perfused with ice-cold PBS and quickly removed. The hearts were embedded in OCT and snap-frozen in liquid nitrogen. Series of 5 μm-thick slices were sectioned from the heart immediately. Tissue sections were then stained with Dihydroethidium (DHE, Invitrogen) for 15 m, followed by staining with DAPI (1 μg/ml, Sigma). Tissue slides were sealed and examined with an Olympus epifluorescence microscope (Model BX51). The numbers of DHE-positive nuclei and the total nuclei were counted in 5 microscopic fields (400×) per section. Five heart sections from each mouse were counted to determine the percentage of the DHE-positive nuclei."}, "cardiomyocytes [3]": {"system": "cardiomyocytes", "assay": "Western blot of Ndufa3, Atp5a and Sdha in mitochondria isolated from cardiomyocytes", "settings": "cardiomyocytes of doxorubicin-treated Top2b+/+ mice, 72 h", "description": "Expression of Top2b was examined in the hearts of mice. After sacrifice, the heart was quickly removed and homogenized immediately in lysis buffer. After homogenization, the lysate was sonicated at 4° C. and an aliquot was removed for protein concentration measurement. The lysate was stored at −80° C. for western blot analysis. 20 μg of lysate proteins were electrophoresed and transferred to PVDF membranes. Blots were blocked with 5% non-fat dry milk, and incubated overnight at 4° C. with anti-Top2b antibody (Abcam). To detect mitochondrial proteins, the mitochondria were isolated from cardiomyocytes. The cardiomyocytes were isolated with a Langendorff perfusion system according to a published protocol3. Briefly, heart was removed and rinsed with ice-cold PBS twice before connecting to a Langendorff apparatus through the aorta. The heart was perfused first with perfusion buffer for 3 m at 37° C. (3 ml/min), then digestion buffer (enzyme-containing) buffer at 37° C. for 8-10 m. The heart was disintegrated manually and the tissue/cells were separated by using forceps. […] After incubation with HRP-conjugated secondary antibodies for 40 m at room temperature, the blots were detected with a luminol-based detection kit (ECL, GE Health Care)."}, "heart sections [4]": {"system": "heart sections", "assay": "Detection of apoptosis in heart sections (TUNEL assay)", "settings": "after acute doxorubicin treatment", "description": "Apoptosis was detected by using TUNEL assay on heart sections. Heart harvest, sectioning, and storage were described above. Heart sections were warmed to room temperature before the apoptotic nuclei were stained by using a commercially available kit (In Situ Cell Death Detection Kit, Cat. No. 12156792910, Roche Applied Science). The entire staining procedures were performed according to the manufacturer's instructions. The nuclei were stained with DAPI (Sigma) before the slides were sealed and examined with an Olympus epifluorescence microscope (Model BX51). The apoptotic nuclei and the total nuclei per heart section were counted at 200× magnification. The apoptotic nuclei in 5 heart sections of each mouse were counted and averaged.\nThe cardio-protective effect of Dex against doxirubin-induced apoptosis was assessed in heart tissues. Dexrazoxane (100 mg/kg) was injected (ip) 8 hrs prior to doxorubicin (25 mg/kg) injection (ip). One group received only doxorubicin and a second group received only dexrazoxane. Hearts were harvested 16 hrs after doxorubicin treatment. The numbers of TUNEL-positive nuclei were counted in five fields in each heart section."}, "[5]": {"settings": "Top2b+/+ cardiomyocytes, 16 hrs after doxorubicin 25 mg/kg i.p."}, "[6]": {"settings": "Top2b+/+ hearts, chronic doxorubicin 5 mg/kg once a week for 5 weeks"}},
  "data": [
    {"smiles": "COc1cccc2c1C(=O)c1c(O)c3c(c(O)c1C2=O)C[C@@](O)(C(=O)CO)C[C@@H]3O[C@H]1C[C@H](N)[C@H](O)[C@H](C)O1", "note": "[doxorubicin]", "values": [
      {"measurement": "Transcript of Apaf1, Bax, and Fas (apoptosis pathway genes)", "setting": "cardiomyocytes [1]; [5]", "value": "increases"},
      {"measurement": "Up-regulation of the transcript encoding p53DINP1 (TP53INP1)", "setting": "cardiomyocytes [1]; [5]", "value": 200, "unit": "fold"},
      {"measurement": "Genes involved in mitochondrial biogenesis (RT-qPCR)", "setting": "cardiomyocytes [1]; [6]", "value": "Reduction of genes involved in mitochondrial biogenesis"},
      {"measurement": "Transcripts of Ndufa3, Sdha and Atp5a (electron transport chain)", "setting": "cardiomyocytes [1]; doxorubicin treated Top2b+/+ cardiomyocytes, 72 h, much less so in Top2bΔ/Δ", "value": "decreased"},
      {"measurement": "Erra transcript", "setting": "cardiomyocytes [1]; doxorubicin-treated wild type cardiomyocytes, 72 h, not in Top2b-deleted", "value": "down-regulated"},
      {"measurement": "Reduction of doxorubicin-generated ROS in Top2bΔ/Δ mice versus Top2b+/+ mice", "setting": "heart sections [2]; 16 hrs after doxorubicin 25 mg/kg", "value": 70, "unit": "%"},
      {"measurement": "ROS generation (DHE)", "setting": "heart sections [2]; [6]", "value": "generation of ROS"},
      {"measurement": "ROS generation in the hearts (DHE-positive nuclei)", "setting": "heart sections [2]; Top2b+/+ mice, 16 hrs after doxorubicin 25 mg/kg", "value": "generated ROS"},
      {"measurement": "Protein levels of Ndufa3, Atp5a and Sdha in mitochondria", "setting": "cardiomyocytes [3]", "value": "reduction in the protein levels"},
      {"measurement": "Reduction of TUNEL-positive nuclei in hearts of Top2bΔ/Δ mice compared with Top2b+/+ mice", "setting": "heart sections [4]", "value": 70, "unit": "%"}
    ]}
  ]
}
